Data on 28 compounds can be found in patent publication US8217066B2, “Compounds as lysophosphatidic acid receptor antagonists” (Amira Pharmaceuticals, Inc., priority 2009, dated 2012).

A value given as a limit tells only on which side of the number the result lay.

For the experiment, the target named is T1, human LPA1 (Homo sapiens, UniProt Q92633).
T1 construct: the full-length cDNA for human LPA1 was obtained by PCR of the reverse transcription reaction; expressed in transfected cells
In words: LPA1 calcium flux assay (HLPA1 Ca Flux). The experiment is classed as cell-based. The note with it: CHO cells stably expressing human LPA1, stimulated with 10 nM LPA. As to the method: A 1.1 kb cDNA encoding the human LPA1 receptor was cloned from human lung. Human lung RNA (Clontech Laboratories, Inc. USA) was reverse transcribed using the RETROscript kit (Ambion, Inc.) and the full-length cDNA for human LPA1 was obtained by PCR of the reverse transcription reaction. The nucleotide sequence of the cloned human LPA1 was determined by sequencing and confirmed to be identical to the published human LPA1 sequence (An et al. Biochem. Biophys. Res. Commun. 231:619 (1997). The cDNA was cloned into the pcDNA5/FRT expression plasmid and transfected in CHO cells using lipofectamine 2000 (Invitrogen Corp., USA). Clones stably expressing human LPA1 were selected using hygromycin and identified as cells that show Ca-influx in response to LPA.
Human LPA1 or LPA3 expressing CHO cells are seeded at 20,000-45,000 cells per well in a 96-well poly-D-lysine coated plate one or two days before the assay. Prior to the assay, the cells are washed once with PBS and then cultured in serum-free media overnight. On the day of the assay, a calcium indicator dye (Calcium 4, Molecular Devices) in assay buffer (HBSS with Ca^2+ and Mg^2+ and containing 20 mM Hepes and 0.3% fatty-acid free human serum albumin) is added to each well and incubation continued for 1 hour at 37° C. […] of test compounds in 2.5% DMSO are added to the cells and incubation continued at room temperature for 30 minutes. Cells are the stimulated by the addition of 10 nM LPA and intracellular Ca^2+ measured using the Flexstation 3 (Molecular Devices). IC50s are determined using Graphpad prism analysis of drug titration curves.
Background: A change in cytosolic calcium serves as a functional read-out for many receptors and channels.

T1 sequence (Q92633 whole entry): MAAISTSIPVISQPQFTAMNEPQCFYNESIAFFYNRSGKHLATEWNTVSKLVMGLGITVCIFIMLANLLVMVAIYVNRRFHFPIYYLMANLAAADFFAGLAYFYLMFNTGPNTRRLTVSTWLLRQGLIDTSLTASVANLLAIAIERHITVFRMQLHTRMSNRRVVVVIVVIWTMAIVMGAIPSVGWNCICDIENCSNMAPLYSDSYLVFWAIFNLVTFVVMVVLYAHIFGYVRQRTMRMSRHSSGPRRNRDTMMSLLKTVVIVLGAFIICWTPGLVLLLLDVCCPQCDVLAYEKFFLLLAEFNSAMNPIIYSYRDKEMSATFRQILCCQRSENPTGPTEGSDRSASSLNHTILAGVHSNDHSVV

`Cc1noc(-c2ccc(-c3ccc(C4(C(=O)O)CC4)cc3)cc2)c1CCSCc1ccccc1` [Compound 18, 1-{4′-[4-(2-Benzylsulfanyl-ethyl)-3-methyl-isoxazol-5-yl]-biphenyl-4-yl}-cyclopropanecarboxylic acid]: the IC50 – broadly, the concentration at which inhibition is half-maximal – was under 300 nM. The figure for `Cc1noc(-c2ccc(-c3ccc(C4(C(=O)O)CC4)cc3)cc2)c1NCCC(C)c1ccccc1` (stereo not shown) [Compound 1, 1-{4′-[3-Methyl-4-(3-phenyl-butylamino)-isoxazol-5-yl]-biphenyl-4-yl}-cyclopropanecarboxylic acid] is under 300 nM; for `Cc1cccc(CCCC(O)c2c(C)noc2-c2ccc(-c3ccc(C4(C(=O)O)CC4)cc3)cc2)c1` (stereo not shown) [Compound 37, 1-{4′-[4-(1-Hydroxy-4-m-tolyl-butyl)-3-methyl-isoxazol-5-yl]-biphenyl-4-yl}-cyclopropanecarboxylic acid] it is under 300 nM.

With `Cc1noc(-c2ccc(-c3ccc(C4(C(=O)O)CC4)cc3)cc2)c1C(O)CCc1ccccc1` (stereo not shown) [Compound 34, 1-{4′-[4-(1-Hydroxy-3-phenyl-propyl)-3-methyl-isoxazol-5-yl]-biphenyl-4-yl}-cyclopropanecarboxylic acid], the IC50 is under 300 nM. With `Cc1noc(-c2ccc(-c3ccc(C4(C(=O)O)CC4)cc3)cc2)c1CC(O)CCc1ccccc1` (stereo not shown) [Compound 20, 1-{4′-[4-(2-Hydroxy-4-phenyl-butyl)-3-methyl-isoxazol-5-yl]-biphenyl-4-yl}-cyclopropanecarboxylic acid], the 50% inhibitory concentration (IC50) was under 300 nM. The value for `Cc1noc(-c2ccc(-c3ccc(C4(C(=O)O)CC4)cc3)cc2)c1CC(C)(O)CCc1ccccc1` (stereo not shown) [Compound 25, 1-{4′-[4-(2-Hydroxy-2-methyl-4-phenyl-butyl)-3-methyl-isoxazol-5-yl]-biphenyl-4-yl}-cyclopropanecarboxylic acid] was under 300 nM. For `Cc1noc(-c2ccc(-c3ccc(C4(C(=O)O)CC4)cc3)cc2)c1NCC(C)Cc1ccc(C(C)C)cc1` (stereo not shown) [Compound 3, 1-(4′-{4-[3-(4-Isopropyl-phenyl)-2-methyl-propylamino]-3-methyl-isoxazol-5-yl}-biphenyl-4-yl)-cyclopropanecarboxylic acid], the half-inhibitory concentration (IC50) was in the range of 300 to 1000 nM. The figure for `Cc1noc(-c2ccc(-c3ccc(C4(C(=O)O)CC4)cc3)cc2)c1CCOC(C)c1ccccc1` (stereo not shown) [Compound 14, 1-(4′-{3-Methyl-4-[2-(1-phenyl-ethoxy)-ethyl]-isoxazol-5-yl}-biphenyl-4-yl)-cyclopropanecarboxylic acid] is under 300 nM; for `Cc1noc(-c2ccc(-c3ccc(C4(C(=O)O)CC4)cc3)cc2)c1COCC(C)c1ccccc1` (stereo not shown) [Compound 11, 1-{4′-[3-Methyl-4-(2-phenyl-propoxymethyl)-isoxazol-5-yl]-biphenyl-4-yl}-cyclopropanecarboxylic acid] it is under 300 nM. `Cc1noc(-c2ccc(-c3ccc(C4(C(=O)O)CC4)cc3)cc2)c1C(O)CCCc1cccc(C(F)(F)F)c1` (stereo not shown) [Compound 36, 1-(4′-{4-[1-Hydroxy-4-(3-trifluoromethyl-phenyl)-butyl]-3-methyl-isoxazol-5-yl}-biphenyl-4-yl)-cyclopropanecarboxylic acid]: the IC50 was under 300 nM. `Cc1noc(-c2ccc(-c3ccc(C4(C(=O)O)CC4)cc3)cc2)c1C(O)C(C)CCc1ccccc1` (stereo not shown) [Compound 44, 1-{4′-[4-(1-Hydroxy-2-methyl-4-phenyl-butyl)-3-methyl-isoxazol-5-yl]-biphenyl-4-yl}-cyclopropanecarboxylic acid]: the IC50 is under 300 nM.

In the case of `Cc1noc(-c2ccc(-c3ccc(C4(C(=O)O)CC4)cc3)cc2)c1CCNCc1ccccc1` [Compound 28, 1-{4′-[4-(2-Benzylamino-ethyl)-3-methyl-isoxazol-5-yl]-biphenyl-4-yl}-cyclopropanecarboxylic acid], the IC50 lay within 300 to 1000 nM. The figure for `Cc1ccc(S(=O)(=O)NC(=O)C2(c3ccc(-c4ccc(-c5onc(C)c5C(O)CCCc5ccccc5)cc4)cc3)CC2)cc1` (stereo not shown) [Compound 78, N-(1-{4′-[4-(1-Hydroxy-4-phenyl-butyl)-3-methyl-isoxazol-5-yl]-biphenyl-4-yl}-cyclopropanecarbonyl)-4-methyl-benzenesulfonamide] is under 300 nM; for `Cc1noc(-c2ccc(-c3ccc(C4(C(=O)O)CC4)cc3)cc2)c1CSCCc1ccccc1` [Compound 10, 1-[4′-(3-Methyl-4-phenethylsulfanylmethyl-isoxazol-5-yl)-biphenyl-4-yl]-cyclopropanecarboxylic acid] it is under 300 nM; for `Cc1noc(-c2ccc(-c3ccc(C4(C(=O)O)CC4)cc3)cc2)c1CNCC(C)c1ccccc1` (stereo not shown) [Compound 13, 1-(4′-{3-Methyl-4-[(2-phenyl-propylamino)-methyl]-isoxazol-5-yl}-biphenyl-4-yl)-cyclopropanecarboxylic acid] it is under 300 nM.

As to `Cc1noc(-c2ccc(-c3ccc(C4(C(=O)O)CC4)cc3)cc2)c1C(O)C(F)(F)CCc1ccc(F)cc1` (stereo not shown) [Compound 62, 1-(4′-{4-[2,2-Difluoro-4-(4-fluoro-phenyl)-1-hydroxy-butyl]-3-methyl-isoxazol-5-yl}-biphenyl-4-yl)-cyclopropanecarboxylic acid], the IC50 was under 300 nM. The value for `Cc1noc(-c2ccc(-c3ccc(C4(C(=O)O)CC4)cc3)cc2)c1COCC(C)(O)c1ccccc1` (stereo not shown) [Compound 19, 1-{4′-[4-(2-hydroxy-2-phenyl-propoxymethyl)-3-methyl-isoxazol-5-yl]-biphenyl-4-yl}-cyclopropanecarboxylic acid] was 1000 to 50000 nM; that for `Cc1noc(-c2ccc(-c3ccc(C4(C(=O)O)CC4)cc3)cc2)c1CCOCc1ccc(Cl)cc1` [Compound 17, 1-(4′-{4-[2-(4-Chloro-benzyloxy)-ethyl]-3-methyl-isoxazol-5-yl}-biphenyl-4-yl)-cyclopropanecarboxylic acid] was under 300 nM.

As to `Cc1noc(-c2ccc(-c3ccc(C4(C(=O)O)CC4)cc3)cc2)c1CCOCc1ccccc1Cl` [Compound 15, 1-(4′-{4-[2-(2-Chloro-benzyloxy)-ethyl]-3-methyl-isoxazol-5-yl}-biphenyl-4-yl)-cyclopropanecarboxylic acid], the IC50 was under 300 nM.

Turning to `Cc1noc(-c2ccc(-c3ccc(C4(C(=O)O)CC4)cc3)cc2)c1C(C)(O)CCCc1ccccc1` (stereo not shown) [Compound 26, 1-{4′-[4-(1-Hydroxy-1-methyl-4-phenyl-butyl)-3-methyl-isoxazol-5-yl]-biphenyl-4-yl}-cyclopropanecarboxylic acid], the IC50 is under 300 nM. With `Cc1noc(-c2ccc(-c3ccc(C4(C(=O)NS(=O)(=O)C5CC5)CC4)cc3)cc2)c1C(O)CCCc1ccccc1` (stereo not shown) [Compound 79], the IC50 is under 300 nM. For the compound `Cc1noc(-c2ccc(-c3ccc(C4(C(=O)O)CC4)cc3)cc2)c1C(O)CCCc1ccc(C(F)(F)F)cc1` (stereo not shown) [Compound 39, 1-(4′-{4-[1-Hydroxy-4-(4-trifluoromethyl-phenyl)-butyl]-3-methyl-isoxazol-5-yl}-biphenyl-4-yl)-cyclopropanecarboxylic acid], the IC50 was under 300 nM. The figure for `Cc1noc(-c2ccc(-c3ccc(C4(C(=O)O)CC4)cc3)cc2)c1C(O)CCCc1ccccc1C(F)(F)F` (stereo not shown) [Compound 40, 1-(4′-{4-[1-Hydroxy-4-(2-trifluoromethyl-phenyl)-butyl]-3-methyl-isoxazol-5-yl}-biphenyl-4-yl)-cyclopropanecarboxylic acid] is under 300 nM; for `Cc1noc(-c2ccc(-c3ccc(C4(C(=O)O)CC4)cc3)cc2)c1CC(O)CNCc1ccccc1` (stereo not shown) [Compound 27, 1-{4′-[4-(3-Benzylamino-2-hydroxy-propyl)-3-methyl-isoxazol-5-yl]-biphenyl-4-yl}-cyclopropanecarboxylic acid] it is 1000 to 50000 nM; for `Cc1noc(-c2ccc(-c3ccc(C4(C(=O)O)CC4)cc3)cc2)c1C(O)COCc1cccc(C(F)(F)F)c1` (stereo not shown) [Compound 58, 1-(4′-{4-[1-Hydroxy-2-(3-trifluoromethyl-benzyloxy)-ethyl]-3-methyl-isoxazol-5-yl}-biphenyl-4-yl)-cyclopropanecarboxylic acid] it is under 300 nM. `Cc1noc(-c2ccc(-c3ccc(C4(C(=O)O)CC4)cc3)cc2)c1NC(C)CCc1ccccc1Cl` (stereo not shown) [Compound 53, 1-(4′-{4-[3-(2-Chloro-phenyl)-1-methyl-propylamino]-3-methyl-isoxazol-5-yl}-biphenyl-4-yl)-cyclopropanecarboxylic acid]: the IC50 is under 300 nM. With `CCC(CCc1ccccc1)Nc1c(C)noc1-c1ccc(-c2ccc(C3(C(=O)O)CC3)cc2)cc1` (stereo not shown) [Compound 66, 1-{4′-[4-(1-Ethyl-3-phenyl-propylamino)-3-methyl-isoxazol-5-yl]-biphenyl-4-yl}-cyclopropanecarboxylic acid], the IC50 is under 300 nM.

As for `Cc1noc(-c2ccc(-c3ccc(C4(C(=O)O)CC4)cc3)cc2)c1CNC[C@H](C)c1ccccc1` [Compound 22, 1-(4′-{3-Methyl-4-[((R)-2-phenyl-propylamino)-methyl]-isoxazol-5-yl}-biphenyl-4-yl)-cyclopropanecarboxylic acid], the IC50 is under 300 nM.
